# Measurements published in patent US8653132B2, “Phosphaplatins and their use in pharmaceutical compositions” (Ohio University, priority 2007, dated 2014).
# Legend:
# [1] = Stability in aqueous solution by 31P NMR; assay type: physicochemical
# Protocol: Starting with the bottom spectrum in each panel, spectra were recorded at 24 hour time intervals.
# At neutral pH, the isolated monomeric Pt(II) and Pl(IV) complexes of the present invention are stable. […] However, in the same time interval, slow deligation due to the release of the pyrophosphate ligand was evident at pH 4.2 by the appearance of the free pyrophosphate signal at −10.3 ppm. At the same time, an insoluble pyrophosphate-bridged dinuclear platinum(II) product was formed.
# [2] = tested on: A2780/C30 cisplatin-resistant ovarian cell line; assay: Clonogenic assay, cisplatin/carboplatin-resistant C30; assay type: cell-based, human; conditions: 1 hour drug treatment, 1 week colony formation
# Protocol: A cisplatin-resistant Ovarian cell line (C30) (Hamaguchi, et al., 1993), obtained from Dr. Thomas Hamilton (Fox Chase Cancer Center, Philadelphia, Pa.), was treated with the monomeric platinum complexes of the present invention (shown in FIG. 2). This cell line is also cross resistant to carboplatin. Cells were cultured on monolayer using RPMI 1640 supplemented with 10% fetal bovine serum, 2 mM glutamine, 0.25 units/mL insulin and penicillin/streptomycin in a 37 degrees C. incubator continuously gassed with 5% CO2. Cells were subcultured using 0.025% trypsin in HBSS to maintain cells in exponential growth.
# IC50 values were determined using a clonogenic assay. Briefly, 500 C30 cells from a single cell suspension were plated onto 60 mm Petri plates 24 hours before drug treatment to permit cell attachment. On the day of drug treatment, the medium was decanted and replaced with the drug and these treated cells were placed back into the 37 degrees C. incubator for 1 hour. Triplicate plates were set up for each drug concentration. After the one hour drug treatment, the drug containing medium was decanted and replaced with fresh medium. These plates were returned to the 37 degrees C. incubator for 1 week for colony formation. Colonies were fixed and stained using 2% crystal violet in absolute methanol. Colonies containing more than 50 cells were scored. The number of scored colonies from the triplicate plates was averaged and this number was divided by the number of cells plated to obtain a value for the fraction of cells forming colonies. These values for fraction of cells forming colonies were then corrected for plating efficiency by dividing them by the number of cells forming colonies in plates that were not treated with drug.
# A2780 cells = assay: Cellular accumulation of platinum by atomic absorption, A2780; assay type: cell-based, human; conditions: for Cellular accumulation of platinum: 1 hr exposure
# Protocol: (§1) Platinum content was quantitatively estimated on a Graphite Furnace Atomic Absorption Spectrometer (Perkin Elmer AA-600) from calibration curves established by using cisplatin or pyrodach-2 in water. Cells (5×10^6) were seeded in T75 cm^2 flasks. After 24 h, these cells were then treated with the different concentrations (0, 10, 20, 30 and 50 μM) of cisplatin and pyrodach-2. After 1 hr exposure with the platinum complexes, the drug-containing medium was removed and the cells were washed with ice-cold phosphate-buffered saline (PBS). The cells were then trypsinized and centrifuged into a pellet. Cell pellets were digested in concentrated HNO3 and H2O2 prior to analysis, according to the method of McGahan. Data reported in Table 4 were collected from three independent experiments each was carried out in duplicate. For the cisplatin accumulation, data were obtained from triplicate runs from a single sample at a given concentration.
# A2780/C30 cells [3] = assay: Cellular accumulation of platinum by atomic absorption, A2780/C30; assay type: cell-based, human; conditions: 1 hr exposure
# Protocol: as §1
# guanine base = assay: Guanine base binding by proton NMR; conditions: cisplatin after 48 hours, am-2 96 hours, dach-2 106 hours
# Protocol: FIG. 12 is a comparison of guanine base binding (the predominant DNA binding site of cisplatin) among cisplatin (bottom), am-2 (middle), and dach-2 (top) by proton NMR spectroscopy. […] The bottom spectrum was recorded after 48 hours. The middle and top spectra were recorded after 96 and 106 hours, respectively.
# Proton NMR spectroscopic experiments were conducted on a Bruker 500 MHz NMR instrument in 99% (atom) D2O with a water suppression pulse sequence. Samples contained cisplatin (2.0 mM) or pyrodach-2 (2.0 mM) and nucleotides (5′-dGMP, 5′-dAMP, dGpG (5.0 mM)), and, single- and double stranded DNA (calf thymus, 5.0 mM) at pH 7.0 maintained by phosphate and carbonate buffers (10-20 mM). Reactions of cisplatin (0.25 mM) and pyrodach-2 (0.25 mM) with a synthetic 25-mer: 5′-[…]-3′ (SEQ ID NO: 1) (0.25 mM) were also performed under identical conditions. Reactions were carried out up to 7 days, and ^1H and ^31P NMR spectra were recorded at regular time intervals. Usually, a pulse width of 5 μs with a 1.0 s repetition delay was used for the measurements. Typically, a sweepwidth of 10,000 Hz and 32 K data points were selected to collect the Free Induction Decays. A line broadening factor of 1 Hz was for applied Fourier transformation. The chemical shifts, with reference to H—O-D peak, are at 4.67 ppm.
# fas = assay: Apoptotic gene array, real-time PCR: fas; assay type: cell-based; conditions: preliminary
# Protocol: (§2) Preliminary gene expression experiments involving complexes of the present invention as compared to cisplatin (data not shown) were carried out with an apoptotic array containing 84 genes that includes the BCL2 superfamily, both pro- and anti-apoptotic, caspases, the BIR-family, TNF receptor […] factors, p53 and its congeners, and fas associated members by real-time PCR. A closer look at the two sets of gene expressions clearly indicates a number of differences in the expression patterns. […] Specifically, fas was over-expressed by 6-fold compared to the control, and TNFRS genes such as TNFRSF-10B was overexpressed by 2-3 folds over controls. These latter receptor factors belong to the fas superfamily.
# TNFRSF-10B = assay: Apoptotic gene array, real-time PCR: TNFRSF-10B; assay type: cell-based; conditions: preliminary
# Protocol: as §2
# BAK1 = assay: Apoptotic gene array, real-time PCR: BAK1; assay type: cell-based; conditions: preliminary
# Protocol: as §2
# BAX = assay: Apoptotic gene array, real-time PCR: BAX; assay type: cell-based; conditions: preliminary
# Protocol: as §2
# A2780/C30 cells [4] = assay: Cellular accumulation of platinum by atomic absorption, A2780/C30; assay type: cell-based, human; conditions: at its IC50 value
smiles,measurement,setting,value
"NC1CCCCC1N.O=P([O-])(O)OP(=O)([O-])O.[Pt+2] [dach-2, (Trans-1,2-cyclohexanediamine)(dihydrogenpyrophosphato)platinum(II)]",decomposition / deligation at pH 4.2,"[1]; pH 4.2, six days",considerable decomposition
same,decomposition at pH 8,"[1]; pH 8, up to six days",no decomposition
same,IC50,[2],48 ± 5 µM
same,Cellular accumulation of platinum,"A2780 cells; A2780, 10 μM",1.00 ± 0.10 ng/10^6 cells
same,Cellular accumulation of platinum,"A2780 cells; A2780, 20 μM",1.50 ± 0.30 ng/10^6 cells
same,Cellular accumulation of platinum,"A2780 cells; A2780, 30 μM",3.00 ± 1.00 ng/10^6 cells
same,Cellular accumulation of platinum,"A2780 cells; A2780, 50 μM",5.00 ± 0.30 ng/10^6 cells
same,accumulation in A2780 cells,A2780 cells; at 10 μM concentration,1.0 ng Pt/10^6 cells
same,Cellular accumulation of platinum,"A2780/C30 cells [3]; A2780/C30, 10 μM",0.10 ± 0.08 ng/10^6 cells
same,Cellular accumulation of platinum,"A2780/C30 cells [3]; A2780/C30, 20 μM",1.00 ± 0.02 ng/10^6 cells
same,Cellular accumulation of platinum,"A2780/C30 cells [3]; A2780/C30, 30 μM",1.00 ± 0.02 ng/10^6 cells
same,Cellular accumulation of platinum,"A2780/C30 cells [3]; A2780/C30, 50 μM",2.00 ± 0.10 ng/10^6 cells
same,guanine base binding (H8 signal),guanine base,exhibits a signal for the free guanine base at 8.05 ppm
same,fas over-expression compared to the control,fas,6 fold
same,TNFRSF-10B overexpression over controls,TNFRSF-10B,2-3 folds
same,BAK1 overexpression,BAK1,2-3 folds
same,BAX overexpression,BAX,2-3 folds
same,platinum accumulation in the resistant cell lines,A2780/C30 cells [4],1.4 ng Pt/10^6 cells
